target: Beta-secretase 1 (Homo sapiens, UniProt P56817); experiment: Inhibition of BACE1 (unknown origin) using Rh-EVNNLDAEFK-Quencher substrate incubated for 3 hrs by FRET assay
Sequence (P56817 whole entry): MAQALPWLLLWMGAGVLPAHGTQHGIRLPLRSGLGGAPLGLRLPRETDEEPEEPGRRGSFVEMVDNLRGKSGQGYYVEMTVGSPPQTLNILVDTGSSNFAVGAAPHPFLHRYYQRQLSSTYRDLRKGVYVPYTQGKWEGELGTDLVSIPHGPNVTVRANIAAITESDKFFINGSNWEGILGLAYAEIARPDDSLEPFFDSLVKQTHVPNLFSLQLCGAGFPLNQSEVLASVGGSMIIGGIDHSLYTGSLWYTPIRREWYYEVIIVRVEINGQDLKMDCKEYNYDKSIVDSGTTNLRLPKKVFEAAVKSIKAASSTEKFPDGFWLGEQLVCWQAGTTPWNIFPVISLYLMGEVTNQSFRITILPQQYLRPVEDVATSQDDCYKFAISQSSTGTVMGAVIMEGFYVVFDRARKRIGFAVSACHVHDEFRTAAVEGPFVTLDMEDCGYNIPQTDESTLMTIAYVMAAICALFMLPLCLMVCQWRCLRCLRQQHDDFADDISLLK

Row | Compound | IC50
1 | C/C(=C\CC/C(C)=C/CCC1(C)C=Cc2cc(C(=O)O)ccc2O1)CC/C=C(\C)C(=O)O (racemic) | 11.4 µM
2 | C/C(=C\CC/C(C)=C/Cc1cc(C(=O)O)ccc1O)CC/C=C(\C)CC/C=C(\C)C(=O)O | 2 µM
3 | C=C(CC/C=C(\C)CC/C=C(\C)C(=O)O)C(O)CC/C(C)=C/Cc1cc(C(=O)O)ccc1O (racemic) | 14.7 µM

— ChEMBL document CHEMBL4339241, “Meroterpenoids with BACE1 Inhibitory Activity from the Fruiting Body of Boletinus asiaticus” (J Nat Prod, 2019)
